Laboratory results as given in patent US6653311B1, “5-lipoxygenase inhibitors: (2-azinylamino) quinone derivatives” (Board of Supervisors of Louisiana State University, priority 2002, dated 2003).
Where two headings read alike, the source gives them in different places.

Columns and labels:
5-lipoxygenase (5-LO) = target: T1, 5-lipoxygenase (5-LO) (Oryctolagus cuniculus, UniProt G1SNX0); experiment: Radioisotopic assay of 5-LO activity (LTB4 formation from 14C-arachidonic acid) in rabbit peritoneal PMNL stimulated with A-23187; type: cell-based; settings: for inhibition at 1 µM: rabbit peritoneal neutrophils (PMNL), mean ± s.d. of three experiments in duplicate, read-out: % Inhibition (percent inhibition of LTB4 formation); for in vitro 5-LO activity in words: peritoneal PMNL
T1 construct: Polymorphonuclear leukocytes (PMNLs) were purified from rabbits by glycogen-intraperitoneal elicited intraperitoneal recruitment; endogenous in cells; host or cells: rabbit peritoneal polymorphonuclear leukocytes (PMNL), glycogen-elicited
T1 sequence (G1SNX0 1-674): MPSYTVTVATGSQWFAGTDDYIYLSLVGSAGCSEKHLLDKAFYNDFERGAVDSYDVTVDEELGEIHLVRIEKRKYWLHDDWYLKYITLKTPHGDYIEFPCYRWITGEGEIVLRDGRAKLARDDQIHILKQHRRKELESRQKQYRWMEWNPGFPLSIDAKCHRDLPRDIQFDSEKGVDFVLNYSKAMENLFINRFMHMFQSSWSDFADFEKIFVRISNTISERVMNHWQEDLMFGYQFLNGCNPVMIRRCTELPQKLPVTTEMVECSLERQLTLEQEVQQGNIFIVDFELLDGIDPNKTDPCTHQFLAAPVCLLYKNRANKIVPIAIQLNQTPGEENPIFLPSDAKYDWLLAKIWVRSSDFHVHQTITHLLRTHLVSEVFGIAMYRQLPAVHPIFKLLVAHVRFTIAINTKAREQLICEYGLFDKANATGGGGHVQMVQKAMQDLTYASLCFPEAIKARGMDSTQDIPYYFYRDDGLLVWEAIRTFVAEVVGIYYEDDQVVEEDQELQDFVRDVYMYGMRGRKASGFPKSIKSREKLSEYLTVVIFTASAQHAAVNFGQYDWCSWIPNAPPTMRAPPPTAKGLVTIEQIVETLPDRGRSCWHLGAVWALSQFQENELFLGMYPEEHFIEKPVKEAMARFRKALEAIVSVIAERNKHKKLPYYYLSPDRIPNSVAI
Text: The 5-LO enzyme, which is found primarily in cells of myeloid origin such as polymorphonuclear leukocytes (“PMNL”), eosinophils, and macrophages, catalyzes the first step of the biochemical pathway in which arachadonic acid (“AA”) is,converted into LTA4. […] To test the inhibition of the quinone derivatives on the activity of 5-LO rabbit polymorphonuclear leucocytes (PMNLs) were used.
Polymorphonuclear leukocytes (PMNLs) were purified from rabbits by glycogen-intraperitoneal elicited intraperitoneal recruitment, as descrited in T. Yatabe et al., “Studies on 5-lipoxygenase inhibitors: I. Synthesis and 5-lipoxygenase inhibitory activity of novel hydroxanic acid derivatives,” chem. Pharm. Bull., vol. 46, pp. 966-972 (1998). An intraperitoneal injection of 300 mL of 0.1% (w/v) glycogen in sterile saline was administered 6 h before the rabbits were sacrificed by an intravascular injection of Nembutal. Peritoneal exudates were collected in 5 μM EGTA, and residual red cells were removed by lysis in ammonium chloride. These cell preparations were obtained with greater than 96% purity, as assessed by Wright-Giemsa staining and greater than 95% viability as assessed by Trypan blue exclusion.
PMNL cells in suspension were pre-incubated for 20 min at room temperature with ^14C-labeled arachadonic acid (AA) and diluted to 3000 cells μL^−1. Thereafter, the calcium ionophore A-23187 (1 μg/mL) was added to stimulate LTB4 production, and the cells further incubated for 15 min under stirring at 37° C. After incubation, the aqueous samples were successively shaken with a mixture of chloroform/methanol/formic acid (12:12:1) for 30 sec and then with chloroform for 10 sec. Organic phases containing LTB4, 5-HPETE (5-hydroperoxyeicosatetraenoic acid), diHPETEs (dihydroperoxyeicosatetraenoic acids), and prostaglandins (PGs) were pooled, evaporated to dryness under nitrogen and dissolved into a small amount of chloroform-MeOH (1:1). Separation of the 5-LO metabolites was performed by thin layer chromatography (TLC) on silica gel G plates developed in diethyl ether-hexane-acetic acid (60:40:1, v/v/v).
Bands containing 5-lipoxygenase (5-LO) metabolites were scraped from the TLC plates, and ^14C levels were quantitatively measured by liquid scintillation. 5-LO activity was an obtained from the amount of ^14C-arachidonic acid converted into LTB4 after the prelabeled PMNL cells were stimulated to produce LTB4 by the calcium ionophore as described above. IC50 was calculated as the concentration of the 5-LO antagonist that produced 50% inhibition of the metabolite conversion.
[…] IC50 values, calculated as theconcentration of test compound required to cause 50% inhibition of LTB4 formation, were also determined for some representative examples. […] These compounds, in general, correspond to compounds bearing the more lipophilic quinone fragments. […] See S. Ohkawa et al., “Dual Inhibition of Thromboxane A2 Synthetase and 5-Lipoxygenase with Scavenging Activity of Active Oxygen Species. Synthesis of a Novel Series of (3-Pyridylmethyl)benzoquinone Derivatives,” J. Med. Chem., vol. 34, pp. 267-276 (1991).

[1] = tested on: arachidonic acid-induced ear inflammation in mice; experiment: Arachidonic acid-induced ear inflammation in mice (AAE test); type: in vivo; settings: for change in vivo at 100 µg/ear / change in vivo at 250 µg/ear / change in vivo at 50 µg/ear: Mus musculus, mice, topical, read-out: % inhibition of AA-induced ear inflammation; for change in vivo at 100 µg/ear: 100 μg/ear; for change in vivo at 250 µg/ear: 250 μg/ear; for change in vivo at 50 µg/ear: 50 μg/ear
COX-1 = COX-1 (Homo sapiens, UniProt P23219); experiment: In vitro inhibition of COX-1 activity; settings: read-out: COX-1 percent inhibition
COX-1, sequence (P23219 24-599): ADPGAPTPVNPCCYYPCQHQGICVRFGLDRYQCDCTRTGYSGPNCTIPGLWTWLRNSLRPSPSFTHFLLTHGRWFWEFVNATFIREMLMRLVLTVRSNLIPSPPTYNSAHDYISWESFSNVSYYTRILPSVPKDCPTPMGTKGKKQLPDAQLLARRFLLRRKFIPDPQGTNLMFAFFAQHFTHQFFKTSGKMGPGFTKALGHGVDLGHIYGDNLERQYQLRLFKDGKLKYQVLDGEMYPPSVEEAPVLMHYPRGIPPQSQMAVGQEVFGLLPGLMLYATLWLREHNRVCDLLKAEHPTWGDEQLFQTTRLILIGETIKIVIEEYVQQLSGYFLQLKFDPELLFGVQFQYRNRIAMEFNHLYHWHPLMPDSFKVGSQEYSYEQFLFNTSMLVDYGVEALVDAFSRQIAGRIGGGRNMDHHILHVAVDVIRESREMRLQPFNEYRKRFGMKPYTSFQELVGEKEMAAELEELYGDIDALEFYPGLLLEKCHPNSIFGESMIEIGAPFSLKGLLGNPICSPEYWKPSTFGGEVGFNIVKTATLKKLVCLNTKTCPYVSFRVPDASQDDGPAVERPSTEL
Text: (§1) Percent inhibition mean values ±SD from at least three individual determinations are shown.

COX-2 = target: T2, COX-2 (Homo sapiens, UniProt P35354); experiment: In vitro inhibition of COX-2 activity; settings: read-out: COX-2 percent inhibition
T2 sequence (P35354 18-604): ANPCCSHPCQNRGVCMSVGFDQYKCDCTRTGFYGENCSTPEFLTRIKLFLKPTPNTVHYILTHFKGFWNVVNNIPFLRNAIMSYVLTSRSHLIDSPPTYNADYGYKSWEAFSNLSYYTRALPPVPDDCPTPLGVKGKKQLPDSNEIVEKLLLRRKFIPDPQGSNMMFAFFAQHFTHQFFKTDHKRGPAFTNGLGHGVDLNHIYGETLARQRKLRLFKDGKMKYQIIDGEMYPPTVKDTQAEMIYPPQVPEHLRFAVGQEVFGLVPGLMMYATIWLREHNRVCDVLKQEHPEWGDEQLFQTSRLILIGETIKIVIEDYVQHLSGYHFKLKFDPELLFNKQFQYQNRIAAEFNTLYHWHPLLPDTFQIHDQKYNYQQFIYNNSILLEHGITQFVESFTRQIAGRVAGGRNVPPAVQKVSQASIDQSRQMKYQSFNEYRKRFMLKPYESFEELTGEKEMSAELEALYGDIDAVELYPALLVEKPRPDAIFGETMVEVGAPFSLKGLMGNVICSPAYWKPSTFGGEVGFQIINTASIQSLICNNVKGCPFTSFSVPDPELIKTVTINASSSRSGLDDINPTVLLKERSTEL
Text: as §1

5-LO = target: T3, 5-LO (Rattus norvegicus, UniProt P12527); experiment: 5-LO inhibition by radioimmunoassay (RIA) in rat peritoneal PMNL; settings: inhibitors at 'AM final concentration' [sic], mean ± SD
T3 sequence (P12527 1-673): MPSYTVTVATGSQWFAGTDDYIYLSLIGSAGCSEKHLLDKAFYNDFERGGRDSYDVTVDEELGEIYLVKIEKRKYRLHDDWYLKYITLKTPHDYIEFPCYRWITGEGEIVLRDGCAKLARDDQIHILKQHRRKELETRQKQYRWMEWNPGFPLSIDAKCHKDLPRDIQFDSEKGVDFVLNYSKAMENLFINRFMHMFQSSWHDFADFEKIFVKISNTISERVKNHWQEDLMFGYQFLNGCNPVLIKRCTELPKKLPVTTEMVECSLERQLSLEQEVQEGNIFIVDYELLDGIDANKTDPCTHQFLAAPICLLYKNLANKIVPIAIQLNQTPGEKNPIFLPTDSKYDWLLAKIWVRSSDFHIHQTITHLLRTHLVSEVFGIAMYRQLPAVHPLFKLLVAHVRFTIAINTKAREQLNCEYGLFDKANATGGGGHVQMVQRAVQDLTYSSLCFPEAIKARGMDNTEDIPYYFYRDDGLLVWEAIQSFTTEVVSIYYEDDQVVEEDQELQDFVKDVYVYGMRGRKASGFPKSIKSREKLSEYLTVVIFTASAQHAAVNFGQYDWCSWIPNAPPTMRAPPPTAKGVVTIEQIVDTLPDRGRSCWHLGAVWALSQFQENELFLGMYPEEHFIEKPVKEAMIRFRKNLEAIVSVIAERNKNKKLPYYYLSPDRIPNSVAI
Text: as §1

[2] = measured on PMNL, read-out: IC50 (concentration causing 50% inhibition of LTB4 formation), in parentheses (converted)

| SMILES | inhibition at 1 µM (5-lipoxygenase (5-LO)) [%] | IC50 (5-lipoxygenase (5-LO); [2]) [nM] | in vitro 5-LO activity in words (5-lipoxygenase (5-LO)) | melting point [°C] | inhibition at 500 µM (COX-1) [%] | inhibition at 500 µM (COX-2) [%] | 5-LO percent inhibition (5-LO) [%] | IC50 (5-lipoxygenase (5-LO); PMNL, read-out: IC50 (5-LO, LTB4 formation)) [nM] | change in vivo at 100 µg/ear [1] [%] | change in vivo at 250 µg/ear [1] [%] | change in vivo at 50 µg/ear [1] [%] | % inhibition (AAE test) ([1]; 4c 100 mg (ear) as printed, alone or co-applied with Indomethacin) [%] |
| --- | --- | --- | --- | --- | --- | --- | --- | --- | --- | --- | --- | --- |
| O=C1C=C(Nc2ccc(Br)cn2)C(=O)c2ccccc21 [Compound 4l, 2-(5-Bromopyndin-2-ylamino)-[1,4]naphthoquinone] | 100 ± 0.5 | 142 | potent in vitro 5-LO inhibitors | 243 to 244 | 16.8 ± 1.4 | 8 ± 3.6 | 85.5 ± 4.5 |  | -42.2 ± 3.1 | -30.6 ± 2.2 |  |  |
| CC1=CC(=O)C(Nc2ncccn2)=CC1=O [Compound 4p, 2-Methyl-5-(pyrimidin-2-ylamino)-[1,4]benzoquinone] | 62 ± 1.7 |  |  | 172 to 174 | 8.4 ± 6.4 | 0 | 90.4 ± 3.3 |  |  |  |  |  |
| O=C1C=C(Nc2ccccn2)C(=O)c2ccccc21 [Compound 4i, 2-(Pyridin-2-ylamino)-[1,4]naphthoquinone] | 100 ± 0.4 | 45 | potent in vitro 5-LO inhibitors | 205 to 206 | 23.1 ± 4.6 | 16.5 ± 6.1 | 86.2 ± 10.0 |  | -20.4 ± 2.1 |  |  |  |
| COC1=C(OC)C(=O)C(Nc2ccccn2)=C(C)C1=O [Compound 4e, 2,3-Dimethoxy-5-methyl-6-(pyridin-2-ylamino)-[1,4]benzoquinone] | 92 ± 4.7 | 155 | potent in vitro 5-LO inhibitors | 79 to 81 | 11.2 ± 2.7 | 9.4 ± 0.4 | 95.4 ± 4.0 |  |  |  |  |  |
| CC1=CC(=O)C(Nc2ccccn2)=CC1=O [Compound 4c, 2-Methyl-5-(pyridin-2-ylamino)-[1,4]benzoquinone] | 94 |  | potent in vitro 5-LO inhibitors | 137 to 139 | 5.2 ± 6.2 | 20.1 ± 0.7 | 85.8 ± 13.1 | 18 | -63.7 ± 3.9 | -84.9 ± 2.4 | -52.8 ± 6.4 | 66 |

Second part, led by results:

| inhibition at 1 µM (5-lipoxygenase (5-LO)) [%] | IC50 (5-lipoxygenase (5-LO); [2]) [nM] | in vitro 5-LO activity in words (5-lipoxygenase (5-LO)) | melting point [°C] | inhibition at 500 µM (COX-1) [%] | inhibition at 500 µM (COX-2) [%] | 5-LO percent inhibition (5-LO) [%] | IC50 (5-lipoxygenase (5-LO); PMNL, read-out: IC50 (5-LO, LTB4 formation)) [nM] | SMILES | change in vivo at 100 µg/ear [1] [%] | change in vivo at 250 µg/ear [1] [%] | change in vivo at 50 µg/ear [1] [%] | % inhibition (AAE test) ([1]; 4c 100 mg (ear) as printed, alone or co-applied with Indomethacin) [%] |
| --- | --- | --- | --- | --- | --- | --- | --- | --- | --- | --- | --- | --- |
| 98 ± 1.1 | 165 | potent in vitro 5-LO inhibitors | 245 to 247 | 14.4 ± 1.3 | 6.6 ± 14.9 | 96.4 ± 1.9 |  | O=C1C=C(Nc2ncccn2)C(=O)c2ccccc21 [Compound 4r, 2-(Pyrimidin-2-ylamino)-[1,4]naphthoquinone] | -40 ± 1.9 | -29 ± 1.8 |  |  |
| 96 ± 1.7 | 175 | potent in vitro 5-LO inhibitors | 188 to 189 | 8.4 ± 11.6 | 3.3 ± 12.9 | 89.6 ± 2.3 |  | CC1=C(C)C(=O)C(Nc2nc(C)cc(C)n2)=CC1=O [Compound 4s, 2,3-Dirnethyl-5-(4,6-dimethylpyfimidin-2-ylamino)-[1,4]benzoquinone] | -33.9 ± 3.9 |  | -17.3 ± 1.1 |  |
| 98 ± 1.3 | 161 | potent in vitro 5-LO inhibitors | 196 to 197 | 8.2 ± 2.5 | 0 | 86.3 ± 3.0 |  | Cc1cc(C)nc(NC2=CC(=O)c3ccccc3C2=O)n1 [Compound 4t, 2-(4,6-Dimethylpyrimidin-2-ylamino)-[1,4]naphthoquinone] |  |  | -3.3 ± 1.6 |  |
